The text below walks through data of patent US20260256751A1, “COMBINATION OF BETA-2-ADRENERGIC RECEPTOR AGONISTS AND GLP-1 RECEPTOR AGONISTS FOR USE IN TREATING HYPERGLYCAEMIA” (ATROGI AB, priority 2023, published 2026).

The subject of assay [1] is differentiated L6-myotubes. In words: Glucose uptake screen (Biological example 1 of WO 2019/053427). Type of assay: cell-based. To be noted: compound at 10 μM, activity relative to isoproterenol at 10 μM, read-out: Biological example 1 of WO 2019/053427 (GU). In a few lines:
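Rat L6 myoblasts were differentiated into myotubes over 7 days in 2% FBS, then serum-starved overnight. Cells were stimulated with 1×10^−5 M compound plus β2 antagonist ICI-118551 for 1 h 40 min and re-dosed for 20 min in glucose-free medium. Uptake of 50 nM ^3H-2-deoxyglucose over 10 min was counted after NaOH lysis.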

For assay [2], the system named is differentiated L6-myotubes. In words: cAMP production relative to isoprenaline (Biological example 2 of WO 2019/053427). The assay is classed as cell-based. To be noted: 0.25 h, compound at 10 μM, activity relative to isoproterenol at 10 μM. In a few lines: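 Differentiated L6 myotubes stimulated 15 min with test compound or isoprenaline, each at final 1×10^−5 M, in HBSS with 1% BSA, 5 mM HEPES, 1 mM IBMX, pH 7.4. cAMP production by the compound expressed relative to that induced by the same concentration of isoprenaline.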
In general terms: cAMP levels reflect the balance of adenylyl cyclase and phosphodiesterase activity.

As to `CCCS(=O)(=O)N[C@H]1CC[C@H](CC(C)(C)NC[C@H](O)c2cccc(F)c2)CC1` [Compound 451, (R)-2-{1,1-dimethyl-2-[(1r,4R)-4-(propylsulfonylamino)cyclohexyl]ethylamino}-1-(m-fluorophenyl)-1-ethanol], the Emax at 10 µM in assay [1] lay in the range of 50 to 75%; in assay [2], 25 to 50%.

Consider `O[C@@H](c1cncc(F)c1)C12CCC(CCCc3ccccc3)(CC1)N2` [Compound 531, (S)-(5-fluoro-3-pyridyl){4-(3-phenylpropyl)-7-azabicyclo[2.2.1]hept-1-yl}methanol], for which the Emax at 10 µM in assay [1] was 50 to 75%; in assay [2], under 25%.

Regarding `CCCCNCC(O)c1ccc(F)c(NC(C)=O)c1F` (stereo not shown) [Compound 42, N-{3-[2-(butylamino)-1-hydroxyethyl]-2,6-difluorophenyl}acetamide], the Emax at 10 µM in assay [1] is 25 to 50%; in assay [2], under 25%.

Turning to `CC1(C)CC[C@@H]([C@@H](O)c2cccc(F)c2)N1` [Compound 145, (S)-[(S)-5,5-dimethyl-2-pyrrolidinyl](m-fluorophenyl)methanol], the Emax at 10 µM in assay [1] was 25 to 50%; in assay [2], under 25%.

On to `COc1ccc(C[C@H]2CC[C@H]([C@H](O)c3cccc(F)c3)N2)cc1` [Compound 374, (R)-{(2R,5R)-5-[(p-methoxyphenyl)methyl]-2-pyrrolidinyl}(m-fluorophenyl)methanol], for which the figures for the Emax at 10 µM in assay [1] and in assay [2] were over 75% and under 25%, respectively.

`O[C@@H](c1cccc(F)c1)C12CCC(C/C=C/c3ccccc3)(CC1)N2` [Compound 533, (S)-{4-[(E)-3-phenyl-2-propenyl]-7-azabicyclo[2.2.1]hept-1-yl}(m-fluorophenyl)methanol]: the Emax at 10 µM in assay [1] and in assay [2] was under 25% each time.

Consider `O[C@@H](c1cncc(F)c1)C12CCC(C/C=C/c3ccccc3)(CC1)N2` [Compound 529, (S)-{4-[(E)-3-phenyl-2-propenyl]-7-azabicyclo[2.2.1]hept-1-yl}(5-fluoro-3-pyridyl)methanol], for which the Emax at 10 µM in assay [1] is 25 to 50%; in assay [2] it was under 25%.

Consider `CC(C)(C)NC[C@H](O)c1cccc(C(F)(F)F)n1` [Compound 397, (S)-2-(tert-butylamino)-1-[6-(trifluoromethyl)-2-pyridyl]-1-ethanol], for which the Emax at 10 µM in assay [1] is over 75%; in assay [2] it was under 25%.

For the molecule `O[C@@H](c1cccc(F)c1)[C@H]1CCC2(CC2)N1` [Compound 171, (S)-{(R)-4-aza-5-spiro[2.4]heptyl}(m-fluorophenyl)methanol], the Emax at 10 µM in assay [1] was 25 to 50%; in assay [2], under 25%.

For `CC(C)(C[C@H]1CC[C@H](NC(=O)c2ccccc2)CC1)NC[C@H](O)c1cccc(F)c1` [Compound 384, N-[(1R,4r)-4-{2-[(R)-2-(m-fluorophenyl)-2-hydroxyethylamino]-2-methylpropyl}cyclohexyl]benzamide], the Emax at 10 µM in assay [1] and in assay [2] was over 75% each time.

For the molecule `CCCCNCC(O)c1ccc(Cl)c(O)c1` (stereo not shown) [Compound 34, 2-(butylamino)-1-(4-chloro-3-hydroxyphenyl)-1-ethanol], the Emax at 10 µM in assay [1] is over 75%; in assay [2], under 25%.

`CC(=O)N(Cc1ccccc1)[C@H]1CC[C@@H](C[C@@H]2CC[C@H]([C@H](O)c3cccc(F)c3)N2)CC1` [Compound 479, N-[(1R,4s)-4-({(2S,5R)-5-[(S)-(m-fluorophenyl)hydroxymethyl]-2-pyrrolidinyl}methyl)cyclohexyl]-N-benzylacetamide]: the Emax at 10 µM in assay [1] and in assay [2] was under 25% throughout.

For `CC1(C)C[C@H]([C@@H](O)c2cccc(F)c2)N1` [Compound 201, (S)-[(R)-4,4-dimethyl-2-azetidinyl](m-fluorophenyl)methanol], the Emax at 10 µM in assay [1] and in assay [2] was under 25% in each case.

Take `CCC[C@H]1CCC[C@@H]([C@H](O)c2cccc(F)c2)N1` [Compound 120, (R)-[(2S,6S)-6-propyl-2-piperidyl](m-fluorophenyl)methanol]: the Emax at 10 µM is 50 to 75% in assay [1] and under 25% in assay [2].
